Literature values as cited in patent US20250134875A1, “FORMULATIONS OF ALK-5 KINASE INHIBITORS AND USES THEREOF” (Thirona Bio, Inc., priority 2023, published 2025).

Experiments:
[1] = test system: mouse fibroblasts and fat precursor cells; settings: cited from earlier work
rat PD models = settings: cited from earlier work
[2] = test system: fibroblasts derived from human PD plaque; settings: cited from earlier work
[3] = test system: TGF-β-induced expression of ACTA2, Col1a1 and Col3a1; settings: 3D culture model of DC-specimens; cited from earlier work
A549 cells = settings: cited from earlier work
[4] = test system: human outer root sheath cells; settings: cited from earlier work
mouse skin = settings: cited from earlier work
TNF = biological target: T1, TNF (Homo sapiens, UniProt P01375); settings: cited from earlier work
T1 construct: host or cells: Dupuytren's nodules of patients (in vivo, endogenous)
T1 sequence (P01375 77-233 limits assumed): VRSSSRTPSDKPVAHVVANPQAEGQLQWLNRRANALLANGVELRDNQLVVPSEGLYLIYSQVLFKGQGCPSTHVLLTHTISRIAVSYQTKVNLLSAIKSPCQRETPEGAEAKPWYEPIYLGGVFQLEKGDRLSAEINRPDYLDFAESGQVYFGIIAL

TGF-β = settings: cited from earlier work

Cc1cccc(-c2nn(C(=S)Nc3ccccc3)cc2-c2ccnc3ccccc23)n1 [Formulation A83-01]
Brown fat adipogenesis [1]: induced brown fat adipogenesis

Cc1cccc(-c2[nH]c(Cc3cccc(C(N)=O)c3)nc2-c2ccc3nccnc3c2)n1 [IN-1130]
Curvature and fibrosis (rat PD models): improved curvature and fibrosis | TGF-β1-induced production of PAI-1, fibronectin, collagen 1 and collagen 4 [2]: significantly reduced

Cc1cccc(-c2nn3c(c2-c2ccnc4ccc(C(N)=O)cc24)CCC3)n1 [LY2157299]
Brown fat adipogenesis [1]: induced brown fat adipogenesis

NC(=O)c1ccc(-c2nc(-c3ccc4c(c3)OCO4)c(-c3ccccn3)[nH]2)cc1 [SB-431542]
TGF-β-induced expression of ACTA2, Col1a1 and Col3a1 [3]: suppressed | Brown fat adipogenesis [1]: induced brown fat adipogenesis

Cc1csc(-c2[nH]cnc2-c2ccc3ncsc3c2)n1 [TP0427736]
Smad2/3 phosphorylation (A549 cells): inhibited | Growth inhibition of human outer root sheath cells [4]: decreased the growth inhibition | Average hair follicle length during transition from late anagen to catagen phase (mouse skin; repeated topical application): suppressed the shortening | Smad2 phosphorylation in mouse skin (mouse skin; topical application): significantly decreased

COc1ccc(/C=C/C(=O)Nc2ccccc2C(=O)O)cc1OC [Tanilast]
Brown fat adipogenesis [1]: induced brown fat adipogenesis

adalimumab
Phenotype of myofibroblasts (TNF; Phase 2a trial, intranodular): downregulated the phenotype of myofibroblasts | Nodule harness and size by ultrasound (TNF; Phase 2b trial): decreased nodule harness and size

fresolimumab: TGF-β neutralizing antibody which targets all three TGF-β isoforms
Clinical skin disease (fibrosis), modified Rodnan skin score (MRSS) (TGF-β; systemic sclerosis patients (N=15), 1 mg/kg twice or 5 mg/kg once, p=0.0002 within 3 weeks): dramatically reversed | Pro-fibrotic TGF-β gene expression profiles in the skin (TGF-β; systemic sclerosis patients): decreased | Systemic side effects (TGF-β; systemic sclerosis patients): significant systemic side effects, notably bleeding
